Test results taken from PMC11259170, “Small-molecule probe for IBD risk variant GPR65 I231L alters cytokine signaling networks through positive allosteric modulation” (Science Advances, 2024).

Columns and labels:
hGPR65 = molecular target: T1, hGPR65 (Homo sapiens, UniProt Q8IYL9); assay: cAMP detection (Lance Ultra), GPR65 KO HeLa reconstituted with hGPR65; 21K screen dose confirmation; assay type: cell-based; details: HeLa GPR65 KO + hGPR65, pH 7.1, 30 min, normalized to DMSO and 100 μM forskolin; read-out: WT EC50
T1 construct: expressed in transfected cells; host or cells: HeLa (ATCC CCL-2), lentiviral transduction, pLX317

mGPR65 = molecular target: T2, mGPR65 (Mus musculus, UniProt Q61038); assay: cAMP detection, GPR65 KO HeLa reconstituted with mGPR65; assay type: cell-based; details: 0 to 50 μM, pH 7.2
T2 construct: expressed in transfected cells; host or cells: HeLa (ATCC CCL-2), lentiviral transduction, pLX317
Method: The Lance Ultra cAMP Kit (PerkinElmer, TRF0264) was used for cAMP detection, and included the following reagents: ULight anti-cAMP antibody, Eu-cAMP tracer, 7.5% BSA Stabilizer solution, and cAMP detection buffer. Stimulation buffer was prepared as described by the kit manufacturer as follows: Hanks buffered saline solution (HBSS, Life Technologies, 14025-126) containing 0.5 mM IBMX (3-isobutyl-1-methylxanthine, Sigma-Aldrich, I7018) and buffered with 1 M Hepes (15630-080). […] HeLa cells were lifted using Versene and then suspended at 2.5 × 10^5 cells/ml in stimulation buffer. Cells were then plated at 20 μl per well (5000 cells per well) in white, opaque OptiPlate 384-well MicroPlates (PerkinElmer, 6007299) using a Thermo Fisher Scientific Combi liquid dispenser. […] Eu-cAMP tracer and Förster resonance energy transfer (FRET) emissions were then read using a PerkinElmer EnVision Multimode plate reader (ENVISION21040010), exciting each well at 320 nm [UV2 (TRF) 320 filter] and reading emissions at 615 nm (Europium 615 filter) and 665 nm (APC665 filter). […]

[1] = tested on: murine macrophages and T cells; parameters: method as in PMID 22445881; details: murine macrophages and T cells ref 33; cited from earlier work
hGPR65 I231L-SmBiT = molecular target: T3, hGPR65 I231L-SmBiT (Homo sapiens, UniProt Q8IYL9, I231L); assay: Nano-BiT target engagement, LgBiT-mGs recruitment to hGPR65 I231L-SmBiT; assay type: cell-based; details: 10 μM
T3 construct: expressed in transfected cells; host or cells: Expi293F (Gibco), transient transfection
Method: Target engagement was measured in Expi293F (Gibco, 100044202) cells using the Nano-Glo Live Cell Assay System (Promega, N2011). Nano-BiT plasmids were cloned from GPR65-, GPR4-, and GPR68-Tango plasmids. GPR65-Tango (Addgene plasmid # 66370; http://n2t.net/addgene:66370; RRID:Addgene_66370), GPR4-Tango (Addgene plasmid # 66358; http://n2t.net/addgene:66358; RRID:Addgene_66358), and GPR68-Tango (Addgene plasmid # 66371; http://n2t.net/addgene:66371; RRID:Addgene_66371) were gifts from Bryan Roth. Expi293F cells were transfected 1 day before kinetics with 500 ng of each plasmid using ExpiFectamine 293 Transfection Kit (Gibco, A14525). After 24 hours, cells were collected, washed, and resuspended in room temperature 0.1% PBS-BSA, adjusted to pH 7.4 using 1 M NaOH. Cells were transferred to white opaque 96-well microplates (100 μl per well, PerkinElmer, 6005290), followed by addition of the Nano-Glo Live Cell Reagent (25 μl per well). Baseline luminescence was measured for 10 cycles (1 cycle = 90 s) before adding compounds. All luminescence measurements were made on BMG Labtech PHERAstar FSX. Data analysis was performed using GraphPad Prism.

T2 sequence (Q61038 whole entry): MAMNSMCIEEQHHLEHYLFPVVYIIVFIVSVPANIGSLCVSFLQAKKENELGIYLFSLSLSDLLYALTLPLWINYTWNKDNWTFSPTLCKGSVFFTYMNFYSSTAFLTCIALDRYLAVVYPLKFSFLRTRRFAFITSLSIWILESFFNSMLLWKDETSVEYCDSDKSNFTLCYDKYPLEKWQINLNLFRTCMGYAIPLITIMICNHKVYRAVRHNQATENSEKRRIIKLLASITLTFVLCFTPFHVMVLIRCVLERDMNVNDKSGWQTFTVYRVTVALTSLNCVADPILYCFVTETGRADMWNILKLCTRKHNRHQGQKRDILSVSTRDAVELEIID
T3 sequence (Q8IYL9 whole entry I231L): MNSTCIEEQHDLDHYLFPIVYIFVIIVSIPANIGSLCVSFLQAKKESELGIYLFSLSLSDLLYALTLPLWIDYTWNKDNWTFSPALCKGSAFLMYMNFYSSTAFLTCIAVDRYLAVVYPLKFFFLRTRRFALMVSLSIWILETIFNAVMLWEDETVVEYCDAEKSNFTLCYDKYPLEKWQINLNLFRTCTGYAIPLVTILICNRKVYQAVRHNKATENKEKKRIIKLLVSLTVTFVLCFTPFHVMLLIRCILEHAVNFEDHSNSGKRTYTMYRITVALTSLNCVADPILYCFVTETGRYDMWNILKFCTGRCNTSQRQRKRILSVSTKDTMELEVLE
T1 sequence (Q8IYL9 whole entry): as the sequence (Q8IYL9 whole entry I231L) above, with L231I counted along it

With `CN1N=C(SCc2ccc(Cl)cc2Cl)Sc2c1cnn(C)c2=O` [BTB09089, reference compound] as the molecule, how does the EC50 (hGPR65) read?
The EC50 was 6 µM.

What about the “cAMP response, BTB09089 compared with BRD2813” value (mGPR65) of the same molecule?
Its value is “more effective”.

What about the “cAMP production through the Gαs-coupled pathway” value [1] of the same molecule?
Its value is “increased cAMP production”.

With `Cc1ccc(NC(=O)c2cnn3c(O)cc(-c4ccc(COC(C)C)cc4)nc23)nc1` [BRD5075, O=C(NC1=NC=C(C)C=C1)C2=C3N(N=C2)C(O)=CC(C4=CC=C(COC(C)C)C=C4)=N3] as the molecule, how does the “G protein recruitment in cells expressing hGPR65 I231L” value (hGPR65 I231L-SmBiT) read?
The value was “able to recruit G protein”.
